Measured values taken from ChEMBL document CHEMBL4483862, “Open-source discovery of chemical leads for next-generation chemoprotective antimalarials” (2018).

Test system: Plasmodium berghei
Experiment: Luciferase/luciferin-expressing antifolate-resistant parasites were used to infect a culture of HepG2 cells that were pre-incubated with compounds. Infected hepatocytes emit light due to the luciferase reaction. Assay results are presented as the percent inhibition of light emission compared to control. […]
Assay type: functional
Settings: sporozoite; for IC90: read-out: LUCIFERASE INFECTION ASSAY - IC90
[1] = read-out: LUCIFERASE INFECTION ASSAY - IC50

| Structure (SMILES) | IC90 | IC50 [1] | further results |
| --- | --- | --- | --- |
| CCCCNC1=C(NS(=O)(=O)c2ccc(NC(C)=O)cc2)C(=O)c2ccccc2C1=O | > 10 µM | – | IC50 (PBLUC_HILL_SLOPE 2.17, PBLUC_R_SQUARED 0.634, read-out: LUCIFERASE INFECTION ASSAY - IC50): 3.66 µM |
| COc1ccc(S(=O)(=O)N2[C@@H]3CC[C@@H](C3)[C@H]2c2nc3c(OCC4CCOCC4)cccc3[nH]2)c(OC)c1 | > 10 µM | – | IC50 (PBLUC_HILL_SLOPE 2.43, PBLUC_R_SQUARED 0.162, read-out: LUCIFERASE INFECTION ASSAY - IC50): 8.16 µM |
| CCOc1cc(/C=C/C(=O)c2ccc(C)cc2)cc(Br)c1OCC(=O)N(C)C | 3.89 µM | 3.4 µM | – |
| CCC(OC(=O)c1cc2ccccc2[nH]1)C(=O)Nc1cc(C)on1 (stereo not given) | > 10 µM | > 10 µM | – |
| COc1cc(Cl)c(C)cc1-n1c(SC(C(C)=O)c2ccccc2)nc2ccccc2c1=O (stereo not given) | > 10 µM | – | IC50 (FFLUC_HILL_SLOPE 3.43, FFLUC_R_SQUARED 0.242, HEPG2TOX_HILL_SLOPE 4.83, HEPG2TOX_R_SQUARED 0.785, PBLUC_HILL_SLOPE 3.87, PBLUC_R_SQUARED 0.683, read-out: LUCIFERASE INFECTION ASSAY - IC50): 6.65 µM |
| Cc1ccc(-n2nc(-c3ccc(OC(F)(F)F)cc3)cc2NC(=O)Nc2ccc(OC(F)(F)F)cc2)cc1C | > 6 µM | – | IC50 (FFLUC_HILL_SLOPE 0.93, FFLUC_R_SQUARED 0.122, PBLUC_HILL_SLOPE 17.9, PBLUC_R_SQUARED 0.245, read-out: LUCIFERASE INFECTION ASSAY - IC50): 5.99 µM |
| O=C1OC(C23CC4CC(CC(C4)C2)C3)=N/C1=C\c1ccc(Cl)c([N+](=O)[O-])c1 | > 10 µM | > 10 µM | – |
| OCc1cccc(-c2cnc3ccc(-c4ccc(F)cc4)nn23)c1 | 6.8 µM | – | IC50 (HEPG2TOX_HILL_SLOPE 2.34, HEPG2TOX_R_SQUARED 0.934, PBLUC_HILL_SLOPE 3.16, PBLUC_R_SQUARED 0.564, read-out: LUCIFERASE INFECTION ASSAY - IC50): 3.39 µM |
| Cc1cc(=O)nc(N/N=C/c2c(C)nn(-c3ccccc3)c2Oc2ccc(F)cc2)[nH]1 | > 10 µM | – | IC50 (PBLUC_HILL_SLOPE 3.64, PBLUC_R_SQUARED 0.538, read-out: LUCIFERASE INFECTION ASSAY - IC50): 6.15 µM |
| C/C(N)=C(/C#N)C(=O)CSc1nnc(-c2ccc(C(C)(C)C)cc2)n1-c1cccc(Cl)c1Cl | > 10 µM | > 10 µM | – |
| O=C(CSc1nnnn1CC1CCCO1)NCc1ccc2c(c1)OCO2 (stereo not given) | > 10 µM | > 10 µM | – |
| c1ccc(C2(c3ccccc3)CC2(c2ccccc2)c2ccccc2)cc1 | 8.97 µM | – | IC50 (FFLUC_HILL_SLOPE 10.4, FFLUC_R_SQUARED 0.239, PBLUC_HILL_SLOPE 23.3, PBLUC_R_SQUARED 0.151, read-out: LUCIFERASE INFECTION ASSAY - IC50): 8.16 µM |
| O=C(CSc1nnnn1-c1ccccc1)N1N=C2/C(=C/c3ccc(F)cc3)CCCC2C1c1ccc(F)cc1 (stereo not given) | > 10 µM | – | IC50 (FFLUC_HILL_SLOPE 14.4, FFLUC_R_SQUARED 0.768, PBLUC_HILL_SLOPE 7.48, PBLUC_R_SQUARED 0.336, read-out: LUCIFERASE INFECTION ASSAY - IC50): 8.21 µM |
| COc1ccc(OC)c(NC(=O)c2cc(-c3ccccc3)nn2-c2ccccc2)c1 | > 10 µM | > 10 µM | – |
| Cc1nn2c(=O)cc(C(C)C)[nH]c2c1-c1ccccc1 | 10.5 µM | – | IC50 (PBLUC_HILL_SLOPE 3.42, PBLUC_R_SQUARED 0.611, read-out: LUCIFERASE INFECTION ASSAY - IC50): 5.51 µM |
| CC(OC(=O)/C=C/c1ccc2ccccc2n1)C(=O)NC1CCCc2ccccc21 (stereo not given) | > 10 µM | > 10 µM | – |
| FC(F)(F)c1cc(NCc2ccccc2C(F)(F)F)nc(-c2ccccn2)n1 | 7.12 µM | – | IC50 (PBLUC_HILL_SLOPE 3.13, PBLUC_R_SQUARED 0.711, read-out: LUCIFERASE INFECTION ASSAY - IC50): 3.52 µM |
| CCN(c1ccccc1)S(=O)(=O)c1ccc(OCC(=O)N(C)Cc2nc3ccccc3s2)cc1 | > 10 µM | – | IC50 (PBLUC_HILL_SLOPE 9.53, PBLUC_R_SQUARED 0.61, read-out: LUCIFERASE INFECTION ASSAY - IC50): 9.27 µM |
| Cc1cc(C(=O)COC(=O)c2ccccc2OCC(=O)Nc2cccc(C(F)(F)F)c2)c(C)n1CC1CCCO1 (stereo not given) | > 10 µM | > 10 µM | – |
| CCCCOc1ccc(Nc2nc(C(N)COCc3ccccc3)cs2)nn1 (stereo not given) | > 8.26 µM | > 8.26 µM | – |
| COc1ccccc1N1CCN(S(=O)(=O)c2cccc(Cl)c2)CC1 | > 9 µM | > 9 µM | – |
| FC(F)(F)c1cnc(N/N=C/c2cccs2)c(Cl)c1 | 10.6 µM | – | IC50 (HEPG2TOX_HILL_SLOPE 9.1, HEPG2TOX_R_SQUARED 0.955, PBLUC_HILL_SLOPE 28.7, PBLUC_R_SQUARED 0.321, read-out: LUCIFERASE INFECTION ASSAY - IC50): 9.82 µM |
| Cc1ccc(C(=O)Nc2nc(C(N)Cc3ccccc3)cs2)cc1 (stereo not given) | > 9.78 µM | > 9.78 µM | – |

| Structure (SMILES) | IC90 | IC50 [1] | further results |
| --- | --- | --- | --- |
| COc1ncccc1C(=O)Nc1cc(Cl)cc(Cl)c1 | 3.83 µM | – | IC50 (PBLUC_HILL_SLOPE 56, PBLUC_R_SQUARED 0.566, read-out: LUCIFERASE INFECTION ASSAY - IC50): 3.68 µM |
| COC(=O)[C@@H](NC(=O)Nc1ccc(-c2nc3ccccc3s2)cc1)C(C)C | > 8.61 µM | – | IC50 (FFLUC_HILL_SLOPE 0.533, FFLUC_R_SQUARED 0.87, PBLUC_HILL_SLOPE 0.528, PBLUC_R_SQUARED 0.783, read-out: LUCIFERASE INFECTION ASSAY - IC50): 0.264 µM |
| CNc1nc(NCc2ccc(C)cc2C)c2sccc2n1 | > 11.1 µM | > 11.1 µM | – |
| Cc1cc(/C=N/Nc2ccnc3cc(Cl)ccc23)c(C)n1-c1cc(S(=O)(=O)N2CCOCC2)ccc1N1CCCC1 | > 10 µM | – | IC50 (FFLUC_HILL_SLOPE 15.8, FFLUC_R_SQUARED 0.537, PBLUC_HILL_SLOPE 3.6, PBLUC_R_SQUARED 0.465, read-out: LUCIFERASE INFECTION ASSAY - IC50): 6.84 µM |
| O=C1N=C(Nc2cccnc2)S/C1=C/c1ccc2ncccc2c1 | 9.5 µM | – | IC50 (HEPG2TOX_HILL_SLOPE 7.45, HEPG2TOX_R_SQUARED 0.476, PBLUC_HILL_SLOPE 2.82, PBLUC_R_SQUARED 0.798, read-out: LUCIFERASE INFECTION ASSAY - IC50): 4.36 µM |
| COc1ccc2cc(/C(C)=N/OC(=O)Nc3ccccc3)ccc2c1 | > 9.87 µM | – | IC50 (HEPG2TOX_HILL_SLOPE 1.11, HEPG2TOX_R_SQUARED 0.992, read-out: LUCIFERASE INFECTION ASSAY - IC50): > 9.87 µM |
| O=C(NC1CC1)c1ccc(-c2cnn3c(NCc4ccc(F)cc4)ccnc23)cc1 | > 8.22 µM | – | IC50 (PBLUC_HILL_SLOPE 3.6, PBLUC_R_SQUARED 0.311, read-out: LUCIFERASE INFECTION ASSAY - IC50): 4.82 µM |
| CN1CCc2nc(NC(=O)C3CCN(c4ncc(C(F)(F)F)cc4Cl)CC3)sc2C1 | > 10 µM | > 10 µM | – |
| CN(CC(=O)NC1CC1)C(=O)CNc1ccccc1Oc1ccccc1 | 4.68 µM | – | IC50 (PBLUC_HILL_SLOPE 1.7, PBLUC_R_SQUARED 0.39, read-out: LUCIFERASE INFECTION ASSAY - IC50): 1.29 µM |
| Fc1ccc(-c2nc(CSc3nc(NC4CC4)c4ccccc4n3)cs2)cc1 | 4.9 µM | – | IC50 (PBLUC_HILL_SLOPE 8, PBLUC_R_SQUARED 0.651, read-out: LUCIFERASE INFECTION ASSAY - IC50): 3.72 µM |
| O=[N+]([O-])c1ccccc1Sc1sc2ncnc(N/N=C/c3ccc(Cl)cc3Cl)c2c1-c1ccccc1 | > 10 µM | – | IC50 (FFLUC_HILL_SLOPE 17, FFLUC_R_SQUARED 0.5, read-out: LUCIFERASE INFECTION ASSAY - IC50): > 10 µM |
| COCCN1C=C(C(=O)OC)C(c2cccc(O)c2)C(C(=O)OC)=C1 | > 9.5 µM | > 9.5 µM | – |
| CCc1c(C)[nH]c2cc(-c3ccc(OC)cc3)nn2c1=O | 3.98 µM | – | IC50 (PBLUC_HILL_SLOPE 29.9, PBLUC_R_SQUARED 0.167, read-out: LUCIFERASE INFECTION ASSAY - IC50): 3.7 µM |
| N#Cc1ccc(NC(=O)C2CC2(Cl)Cl)cc1 (stereo not given) | > 10 µM | > 10 µM | – |
| O=C(Nc1nc2c(s1)CCC2)c1cnn(-c2ccccc2)c1C1CC1 | 0.405 µM | – | IC50 (FFLUC_HILL_SLOPE 2.39, FFLUC_R_SQUARED 0.896, PBLUC_HILL_SLOPE 0.607, PBLUC_R_SQUARED 0.989, read-out: LUCIFERASE INFECTION ASSAY - IC50): 0.0108 µM |
| COc1c(Br)cc([N+](=O)[O-])c(OC)c1C(=O)NC(=O)Nc1cc(C(F)(F)F)cc(C(F)(F)F)c1 | 5.15 µM | – | IC50 (HEPG2TOX_HILL_SLOPE 8.68, HEPG2TOX_R_SQUARED 0.501, PBLUC_HILL_SLOPE 19.7, PBLUC_R_SQUARED 0.399, read-out: LUCIFERASE INFECTION ASSAY - IC50): 4.61 µM |
| c1ccc2c(C3=NN=C(NC4CCCCC4)SC3)c[nH]c2c1 | > 10 µM | > 10 µM | – |
| Cn1c(NCc2ccccc2F)nc2cnc(-c3ccc(Cl)cc3)cc21 | > 10 µM | > 10 µM | – |
| CCOC(=O)c1ccc(-n2sccc2=O)cc1 | > 13.2 µM | > 13.2 µM | – |
| Cc1ccc(-n2ncc(C(=O)Nc3ccncc3)c2C2CC2)cc1Cl | 7.69 µM | – | IC50 (HEPG2TOX_HILL_SLOPE 0.617, HEPG2TOX_R_SQUARED 0.925, PBLUC_HILL_SLOPE 1.2, PBLUC_R_SQUARED 0.513, read-out: LUCIFERASE INFECTION ASSAY - IC50): 1.23 µM |
| CSc1nccc(-c2ccsc2)n1 | > 15.8 µM | – | IC50 (FFLUC_HILL_SLOPE 14.6, FFLUC_R_SQUARED 0.758, read-out: LUCIFERASE INFECTION ASSAY - IC50): > 15.8 µM |
| Cc1nnsc1C(=O)Nc1cccc(C(F)(F)F)c1 | 10.6 µM | – | IC50 (HEPG2TOX_HILL_SLOPE 2.18, HEPG2TOX_R_SQUARED 0.919, PBLUC_HILL_SLOPE 3.32, PBLUC_R_SQUARED 0.374, read-out: LUCIFERASE INFECTION ASSAY - IC50): 5.46 µM |
